Reference: ChEMBL document CHEMBL1221329, “Identification of a novel NR2B-selective NMDA receptor antagonist using a virtual screening approach” (Bioorg Med Chem Lett, 2010)
pIC50: −log10 of the molar value.

molecular target: T1, Glutamate NMDA receptor; GRIN1/GRIN2B (Homo sapiens, UniProt Q05586+Q13224); experiment: Antagonist activity at wild type NR1/NR2B receptor expressed in Xenopus oocytes assessed as ratio of residual current induced by agonist in presence of compound to residual current induced by agonist alone at 10 uM by two-electrode voltage-clamp method; format: functional, cell-based; details: Oocyte

SMILES	Ratio
COc1cc(/C=C2\SC(N3CCN(c4cccc(C)c4)CC3)=NC2=O)ccc1O	0.95
O=C1N=C(N2CCN(c3ccc(F)cc3)CC2)S/C1=C\c1ccc(O)cc1	0.75
O=C1N=C(N2CCN(Cc3ccccc3)CC2)S/C1=C\c1ccc(O)cc1	0.22
O=C1N=C(N2CCN(c3cccc(Cl)c3)CC2)S/C1=C\c1ccc(O)cc1	0.94
COc1cc(/C=C2\SC(Nc3cccc(Cl)c3Cl)=NC2=O)ccc1O	0.925
O=C1N=C(N2CCN(Cc3ccccc3)CC2)S/C1=C/c1ccc(O)cc1	0.15
N=C1/C(=C/c2ccc(O)cc2)C(=O)N=C2SC(Cc3ccc(Cl)cc3)=NN12	0.9
COc1cc(CN2CCN(Cc3cccc(C)c3)CC2)cc(OC)c1O	0.96
CC(=O)Nc1ccc(N2C(=O)C[C@@H](N3CCc4[nH]c5ccccc5c4C3)C2=O)cc1	0.97
O=C1N=C(N2CCN(Cc3ccccc3)CC2)S/C1=C\c1ccccc1O	0.96
CC(=O)Nc1ccc2c(c1)CN(Cc1ccc(Cl)cc1)CO2	0.83
O=C1N=C(N2CCN(Cc3ccccc3)CC2)S/C1=C\c1ccccc1	0.95
COc1cc(/C=C2\SC(N3CCN(c4ccc(C)cc4)CC3)=NC2=O)ccc1O	0.95
O=C1N=C(N2CCN(c3ccccc3)CC2)S/C1=C\c1ccc(O)cc1	0.75
O=C1N=C(N2CCN(c3ccccc3)CC2)S/C1=C/c1ccc(O)cc1	0.74
O=C(CN1CCc2[nH]c3ccccc3c2C1)c1c[nH]c2ccccc12	0.9
COc1cc(/C=C2/SC(N3CCN(Cc4ccccc4)CC3)=NC2=O)ccc1O	0.61
O=C1N=C(N2CCN(Cc3ccccc3)CC2)S/C1=C\c1ccc(O)cc1O	0.18
COc1cc(/C=C2\SC(N3CCN(c4ccc(C)c(Cl)c4)CC3)=NC2=O)ccc1O	0.9
CCN1CCN(C2=NC(=O)/C(=C/c3ccc(O)cc3)S2)CC1	0.93
CCN(CC)CCCOC(=O)c1ccc(O)cc1O	0.94
Nc1ccc(N2CCN(Cc3ccccc3Cl)CC2)cc1	0.98

test system: not listed separately; experiment: Antagonist activity at NR1/NR2B NTD truncated mutant receptor expressed in Xenopus oocytes assessed as ratio of residual current induced by agonist in presence of compound to residual current induced by agonist alone at 10 uM by two-electrode voltage-clamp method; format: functional, Oocyte; details: not given

SMILES	Ratio
COc1cc(/C=C2\SC(N3CCN(c4cccc(C)c4)CC3)=NC2=O)ccc1O	0.96
O=C1N=C(N2CCN(c3ccc(F)cc3)CC2)S/C1=C\c1ccc(O)cc1	0.96
O=C1N=C(N2CCN(Cc3ccccc3)CC2)S/C1=C\c1ccc(O)cc1	0.96
O=C1N=C(N2CCN(c3cccc(Cl)c3)CC2)S/C1=C\c1ccc(O)cc1	0.92
COc1cc(/C=C2\SC(Nc3cccc(Cl)c3Cl)=NC2=O)ccc1O	0.96
O=C1N=C(N2CCN(Cc3ccccc3)CC2)S/C1=C/c1ccc(O)cc1	0.96
N=C1/C(=C/c2ccc(O)cc2)C(=O)N=C2SC(Cc3ccc(Cl)cc3)=NN12	0.97
COc1cc(CN2CCN(Cc3cccc(C)c3)CC2)cc(OC)c1O	0.97
CC(=O)Nc1ccc(N2C(=O)C[C@@H](N3CCc4[nH]c5ccccc5c4C3)C2=O)cc1	0.98
O=C1N=C(N2CCN(Cc3ccccc3)CC2)S/C1=C\c1ccccc1O	0.96
CC(=O)Nc1ccc2c(c1)CN(Cc1ccc(Cl)cc1)CO2	0.88
O=C1N=C(N2CCN(Cc3ccccc3)CC2)S/C1=C\c1ccccc1	0.97
COc1cc(/C=C2\SC(N3CCN(c4ccc(C)cc4)CC3)=NC2=O)ccc1O	0.97
O=C1N=C(N2CCN(c3ccccc3)CC2)S/C1=C\c1ccc(O)cc1	0.96
O=C1N=C(N2CCN(c3ccccc3)CC2)S/C1=C/c1ccc(O)cc1	0.96
O=C(CN1CCc2[nH]c3ccccc3c2C1)c1c[nH]c2ccccc12	0.94
COc1cc(/C=C2/SC(N3CCN(Cc4ccccc4)CC3)=NC2=O)ccc1O	0.97
O=C1N=C(N2CCN(Cc3ccccc3)CC2)S/C1=C\c1ccc(O)cc1O	0.92
COc1cc(/C=C2\SC(N3CCN(c4ccc(C)c(Cl)c4)CC3)=NC2=O)ccc1O	0.97
CCN1CCN(C2=NC(=O)/C(=C/c3ccc(O)cc3)S2)CC1	0.96
CCN(CC)CCCOC(=O)c1ccc(O)cc1O	0.97
Nc1ccc(N2CCN(Cc3ccccc3Cl)CC2)cc1	0.98

molecular target: T1, Glutamate NMDA receptor; GRIN1/GRIN2B; experiment: Antagonist activity at wild type NR1/NR2B receptor expressed in Xenopus oocytes assessed as inhibition of agonist-induced current amplitude by two-electrode voltage-clamp method; format: functional, cell-based, Oocyte; details: not given

SMILES	pIC50
O=C1N=C(N2CCN(c3ccc(F)cc3)CC2)S/C1=C\c1ccc(O)cc1	4.89
O=C1N=C(N2CCN(Cc3ccccc3)CC2)S/C1=C\c1ccc(O)cc1	5.57
O=C1N=C(N2CCN(Cc3ccccc3)CC2)S/C1=C/c1ccc(O)cc1	5.74
COc1cc(/C=C2/SC(N3CCN(Cc4ccccc4)CC3)=NC2=O)ccc1O	4.96
O=C1N=C(N2CCN(Cc3ccccc3)CC2)S/C1=C\c1ccc(O)cc1O	5.78

molecular target: T1, Glutamate NMDA receptor; GRIN1/GRIN2B; experiment: Ratio of compound IC50 to ifenprodil IC50 for wild type NR1/NR2B receptor expressed in Xenopus oocytes; format: cell-based; details: Oocyte

SMILES	Ratio IC50
O=C1N=C(N2CCN(Cc3ccccc3)CC2)S/C1=C\c1ccc(O)cc1	10

molecular target: T2, Glutamate NMDA receptor; GRIN1/GRIN2A (Homo sapiens) (UniProt Q05586+Q12879); experiment: Antagonist activity at wild type NR1/NR2A receptor expressed in Xenopus oocytes assessed as ratio of residual current induced by agonist in presence of compound to residual current induced by agonist alone at 10 uM by two-electrode voltage-clamp method; format: functional, cell-based; details: Oocyte

SMILES	Ratio
O=C1N=C(N2CCN(Cc3ccccc3)CC2)S/C1=C\c1ccc(O)cc1	0.94
O=C1N=C(N2CCN(c3cccc(Cl)c3)CC2)S/C1=C\c1ccc(O)cc1	0.9
COc1cc(/C=C2\SC(Nc3cccc(Cl)c3Cl)=NC2=O)ccc1O	0.97
O=C1N=C(N2CCN(Cc3ccccc3)CC2)S/C1=C/c1ccc(O)cc1	0.9
N=C1/C(=C/c2ccc(O)cc2)C(=O)N=C2SC(Cc3ccc(Cl)cc3)=NN12	0.99
COc1cc(CN2CCN(Cc3cccc(C)c3)CC2)cc(OC)c1O	0.98
CC(=O)Nc1ccc(N2C(=O)C[C@@H](N3CCc4[nH]c5ccccc5c4C3)C2=O)cc1	0.98
CC(=O)Nc1ccc2c(c1)CN(Cc1ccc(Cl)cc1)CO2	0.77
O=C1N=C(N2CCN(c3ccccc3)CC2)S/C1=C\c1ccc(O)cc1	0.88
O=C(CN1CCc2[nH]c3ccccc3c2C1)c1c[nH]c2ccccc12	0.96
O=C1N=C(N2CCN(Cc3ccccc3)CC2)S/C1=C\c1ccc(O)cc1O	0.92
CCN(CC)CCCOC(=O)c1ccc(O)cc1O	0.97
Nc1ccc(N2CCN(Cc3ccccc3Cl)CC2)cc1	0.97

molecular target: T1, Glutamate NMDA receptor; GRIN1/GRIN2B; experiment: Antagonist activity at wild type NR1/NR2B receptor expressed in Xenopus oocytes assessed as inhibition of agonist-induced current amplitude at 10 uM by two-electrode voltage-clamp method; format: functional, cell-based; details: Oocyte

SMILES	inhibition [%]
O=C1N=C(N2CCN(Cc3ccccc3)CC2)S/C1=C\c1ccc(O)cc1	0.92
COc1cc(/C=C2\SC(Nc3cccc(Cl)c3Cl)=NC2=O)ccc1O	< 20
N=C1/C(=C/c2ccc(O)cc2)C(=O)N=C2SC(Cc3ccc(Cl)cc3)=NN12	< 20
COc1cc(CN2CCN(Cc3cccc(C)c3)CC2)cc(OC)c1O	< 20
CC(=O)Nc1ccc(N2C(=O)C[C@@H](N3CCc4[nH]c5ccccc5c4C3)C2=O)cc1	< 20
CC(=O)Nc1ccc2c(c1)CN(Cc1ccc(Cl)cc1)CO2	< 20
O=C(CN1CCc2[nH]c3ccccc3c2C1)c1c[nH]c2ccccc12	< 20
CCN(CC)CCCOC(=O)c1ccc(O)cc1O	< 20
Nc1ccc(N2CCN(Cc3ccccc3Cl)CC2)cc1	< 20

test system: not listed separately; experiment: Antagonist activity at NR1/NR2B NTD truncated mutant receptor expressed in Xenopus oocytes assessed as inhibition of agonist-induced current amplitude at 10 uM by two-electrode voltage-clamp method; format: functional; details: Xenopus laevis, Oocyte

SMILES	inhibition at 10 µM [%]
O=C1N=C(N2CCN(Cc3ccccc3)CC2)S/C1=C\c1ccc(O)cc1	4
O=C1N=C(N2CCN(Cc3ccccc3)CC2)S/C1=C/c1ccc(O)cc1	6
O=C1N=C(N2CCN(c3ccccc3)CC2)S/C1=C\c1ccc(O)cc1	25
O=C1N=C(N2CCN(Cc3ccccc3)CC2)S/C1=C\c1ccc(O)cc1O	6

molecular target: T2, Glutamate NMDA receptor; GRIN1/GRIN2A (Homo sapiens); experiment: Antagonist activity at wild type NR1/NR2A receptor expressed in Xenopus oocytes assessed as inhibition of agonist-induced current amplitude at 10 uM by two-electrode voltage-clamp method; format: functional, cell-based; details: Oocyte

SMILES	inhibition [%]
O=C1N=C(N2CCN(Cc3ccccc3)CC2)S/C1=C\c1ccc(O)cc1	4
O=C1N=C(N2CCN(Cc3ccccc3)CC2)S/C1=C/c1ccc(O)cc1	6
O=C1N=C(N2CCN(c3ccccc3)CC2)S/C1=C\c1ccc(O)cc1	25
O=C1N=C(N2CCN(Cc3ccccc3)CC2)S/C1=C\c1ccc(O)cc1O	6

molecular target: T1, Glutamate NMDA receptor; GRIN1/GRIN2B; experiment: Ratio of compound IC50 to ifenprodil IC50 for wild type NR1/NR2B receptor by radioligand binding assay; format: protein-complex assay; details: not given

SMILES	Ratio IC50
O=C1CNC(=O)N1CCCCCN1CCC(Cc2ccccc2)CC1	440
Oc1nc2cc(C#CCN3CCC(Cc4ccccc4)CC3)ccc2[nH]1	0.048
Nc1ccc(C#CCCN2CCC(Cc3ccccc3)CC2)cc1	4
C(#Cc1ccccc1)CCN1CCC(Cc2ccccc2)CC1	43
O=c1[nH]c2cc([S+]([O-])CCN3CCC(Cc4ccc(F)cc4)CC3)ccc2o1 (stereo unspecified)	0.03
Cc1nnc(SCCCN2CCC(Cc3ccccc3)CC2)s1	58
Oc1ccc2[nH]c3c(c2c1)CN(CCCCc1ccccc1)CC3	0.45
C(#Cc1ccc2[nH]ccc2c1)CN1CCC(=Cc2ccccc2)CC1	140
O=C1CNC(=O)N1CCCN1CCC(Cc2ccccc2)CC1	250
O=c1[nH]c2ncc(C#CCN3CCC(Cc4ccccc4)CC3)cc2o1	0.45
Cn1c(O)nc2cc(C#CCN3CCC(Cc4ccccc4)CC3)ccc21	560
Oc1ccc(CCCCN2CCc3c([nH]c4ccccc34)C2)cc1	5
Oc1nc2cc(C#CCN3CCC(Cc4ccc(F)cc4)CC3)c[nH]c-2n1	0.03
Oc1ccc2c(c1)OC[C@@H](N1CCC(O)(c3ccccc3)CC1)[C@H]2O	11
Oc1nc2cc(C#CCN3CCC(=Cc4ccc(F)cc4)CC3)ccc2[nH]1	2.5
C[C@@H](CN1CCC(Cc2ccccc2)CC1)[C@@H](O)c1ccc(O)cc1	0.3
